Assays:
[1] = Solubilization of nitroimidazoles in water with and without acids: crystals forced at about 4° C., re-dissolution observed at about 20° C. over about 14 days; assay type: physicochemical; set-up: key to crystals present: − means no crystals present; + means crystal are present; conditions: for crystals present: water, about 20° C., 14 days
Procedure: Heat was applied, if necessary, to dissolve the nitroimidazole. No organic co-solvents, water-soluble vitamins, or cyclodextrins were present in the solutions. The amount of acid was selected to be about equimolar with the amount of nitroimidazole added. After the nitroimidazole was dissolved, each solution was cooled to about 4° C. to force crystallization of some of the nitroimidazole. If crystals were not observed upon cooling, seed crystals of nitroimidazole were added and the solution were again maintained at about 4° C. […] The absence of crystals after 14 days indicates effective dissolution of the nitroimidazole.

[2] = in water at neutral pH; cited from earlier work

## Cc1ncc([N+](=O)[O-])n1CCO [Metronidazole, 1-(2-hydroxyethyl)-2-methyl-5-nitroimidazole]
[1]; Metronidazole Concentration 0.8%, Acid: Acetic (about equimolar)
  crystals present: −
[1]; Metronidazole Concentration 0.8%, Acid: Hydrochloric (about equimolar)
  crystals present: −
[1]; Metronidazole Concentration 0.8%, Acid: None
  crystals present: −
[1]; Metronidazole Concentration 0.8%, Acid: Tartaric (about equimolar)
  crystals present: −
[1]; Metronidazole Concentration 1.0%, Acid: Acetic (about equimolar)
  crystals present: −
[1]; Metronidazole Concentration 1.0%, Acid: Citric (about equimolar)
  crystals present: −
[1]; Metronidazole Concentration 1.0%, Acid: Hydrochloric (about equimolar)
  crystals present: −
[1]; Metronidazole Concentration 1.0%, Acid: None
  crystals present: +
[1]; Metronidazole Concentration 1.0%, Acid: Tartaric (about equimolar)
  crystals present: −
[1]; Metronidazole Concentration 1.2%, Acid: Acetic (about equimolar)
  crystals present: +
[1]; Metronidazole Concentration 1.2%, Acid: Hydrochloric (about equimolar)
  crystals present: +
[1]; Metronidazole Concentration 1.2%, Acid: Tartaric (about equimolar)
  crystals present: −
[1]; Metronidazole Concentration […], Acid: Citric (about equimolar)
  crystals present: −
[1]; Metronidazole Concentration […], Acid: None
  crystals present: +
[1]; at 20° C., utilizing organic acids (e.g., acetic acid, citric acid, tartaric acid, and malic acid)
  concentration of solutions free from crystals: at least 1 percent by weight
[2]
  solubility in water: less than 1 percent by weight

## CCS(=O)(=O)CCn1c([N+](=O)[O-])cnc1C [Tinidazole, 1-[2-(ethylsulfonyl)ethyl]-2-methyl-5-nitroimidazole]
[1]; Tinidazole Concentration 0.45%, Acid: Acetic (about equimolar)
  crystals present: −
[1]; Tinidazole Concentration 0.45%, Acid: Citric (about equimolar)
  crystals present: −
[1]; Tinidazole Concentration 0.45%, Acid: Hydrochloric (about equimolar)
  crystals present: −
[1]; Tinidazole Concentration 0.45%, Acid: None
  crystals present: −
[1]; Tinidazole Concentration 0.45%, Acid: Tartaric (about equimolar)
  crystals present: −
[1]; Tinidazole Concentration 0.50%, Acid: Acetic (about equimolar)
  crystals present: −
[1]; Tinidazole Concentration 0.50%, Acid: Citric (about equimolar)
  crystals present: −
[1]; Tinidazole Concentration 0.50%, Acid: Hydrochloric (about equimolar)
  crystals present: −
[1]; Tinidazole Concentration 0.50%, Acid: None
  crystals present: +
[1]; Tinidazole Concentration 0.50%, Acid: Tartaric (about equimolar)
  crystals present: −
[1]; Tinidazole Concentration 0.55%, Acid: Acetic (about equimolar)
  crystals present: +
[1]; Tinidazole Concentration 0.55%, Acid: Citric (about equimolar)
  crystals present: −
[1]; Tinidazole Concentration 0.55%, Acid: Hydrochloric (about equimolar)
  crystals present: −
[1]; Tinidazole Concentration 0.55%, Acid: None
  crystals present: +
[1]; Tinidazole Concentration 0.55%, Acid: Tartaric (about equimolar)
  crystals present: −
[1]; Tinidazole Concentration 0.60%, Acid: Acetic (about equimolar)
  crystals present: +
[1]; Tinidazole Concentration 0.60%, Acid: Citric (about equimolar)
  crystals present: +
[1]; Tinidazole Concentration 0.60%, Acid: Hydrochloric (about equimolar)
  crystals present: +
[1]; Tinidazole Concentration 0.60%, Acid: None
  crystals present: +
[1]; Tinidazole Concentration 0.60%, Acid: Tartaric (about equimolar)
  crystals present: +
[1]; at 20° C., utilizing citric acid and using tartaric acid
  concentration obtained (as high as), free from crystals: about 0.55 percent by weight
[2]
  solubility in water: about 0.45 percent by weight

Source: patent US20080063670A1, “Nitroimidazole composition and method” (priority 2006, published 2008)
